Measured values taken from article PMC5575254, “An allosteric ligand-binding site in the extracellular cap of K2P channels” (Nature Communications, 2017).

Key:
mice [1] = test: Open field test; assay type: in vivo, Male C57BL/6 mice; conditions: chronic i.p. administration 10 days
Experimental: (§1) Male C57BL/6 mice, aged 8 weeks (weighing 18–20 g) were used for acute and chronic drug administration and behavioral tests. The mice were housed four per cage under a 12-h light–dark cycle. Mice were raised under stable conditions with food and water ad libitum. All animal studies and experimental procedures were approved by the Animal Care Committees of the Shanghai Institute of Materia Medica, Chinese Academy of Sciences, and experiments were carried out in accordance with EU Directive 2010/63/EU on the protection of animals used for scientific purposes. […] The mice were removed to a sound-attenuating testing room 3–4 h before testing. The behavioral tests were carried out 30 min and 24 h after acute and chronic drugs administration, respectively.
The apparatus was made of opaque Plexiglas (50 cm × 50 cm) and placed in a room with sound proof. A camera was positioned above the apparatus to monitor the animal behaviors. The mice were randomly placed into the center of the sheet following 30 min drugs administration and their behaviors in the open field arena were recorded for 10 min using the camera. […] Locomotor activity and exploratory behavior were measured in the open field test and each animal was placed individually at the center for a 10 min session. The total distance moved and the number of rearing was measured in this experiment. […]

mice [2] = test: Tail suspension test; assay type: in vivo, Male C57BL/6 mice; conditions: chronic i.p. administration 10 days; 0.5, 1, 5 mg kg-1
Experimental: as §1
Mice were secured on the shelf by using adhesive tape placed approximately 1 cm from the tip of the tail. The mice were then suspended by placing the other end of the tape on the edge of shelf at the height of 80 cm above the floor. Six-minute session was performed for each animal. A blinded experiment was conducted to record the amount of time spent immobile during the last 4 min of the testing period; the first 2 min were excluded. Because most mice are very active at the beginning of the test, and the potential effects of the treatment can be minimized during the first 2 min. […]

[3] = system: cell surface TREK-1 expression; test: Flow cytometry analysis of TREK-1 cell membrane expression; assay type: cell-based, CHO-K1 cells; conditions: 10 μM, 20, 40 min and 1 h incubation
Experimental: CHO-K1 cells were transfected with pFLAG-TREK1 for 24 h. After washed with phosphate-buffered saline (PBS), the cells were disassociated with a non-enzyme cell dissociation solution (Sigma). After 10 μM TKDC incubation for 20, 40 min and 1 h at room temperature, cell surface TREK-1 expression in CHO-K1 cells was analyzed by flow cytometry. Transfected cells expressing FLAG-tagged TREK-1 were incubated with monoclonal ANTI-FLAG® M2-FITC antibody (Sigma). Data were collected with a flow cytometer (FACS Calibur, BD Bioscience) and analyzed with Flow Jo.

TREK-1 = system: T1, TREK-1; test: Outside-out and inside-out patch recordings of TREK-1; assay type: cell-based, human; conditions: +80 mV
T1 construct: expressed in transfected cells; host or cells: CHO cells, transient transfection
Experimental: All electrophysiological recordings were obtained using patch-clamp recordings in two different configurations: (1) whole cell for macroscopic current dose–response curves; and (2) outside-out and inside-out for macroscopic currents recordings.
All patch-clamp recordings were conducted 36–96 h after transfection with an Axopatch-200B amplifier (Molecular Devices) at room temperature (23–25 °C). The microelectrodes fashioned from 1.5 mm thin-walled borosilicate glass with filament were pulled from Flaming/Brown type micropipette puller (P-97; SUTTER INSTRUMENT) with the resistances of 3–7 MΩ (whole cell) or 7–15 MΩ (outside-out) when filled with a solution containing (in mM): 140 KCl, 2 MgCl2, 10 EGTA, 1 CaCl2, 10 HEPES (pH 7.3, adjusted with KOH). External solution contained (in mM): 150 NaCl, 5 KCl, 0.5 CaCl2, 1.2 MgCl2, 10 HEPES (pH 7.3, adjusted with NaOH). The current signals were filtered at 1 kHz and digitized at a 10 kHz sampling frequency by using DigiData 1440 A.
In the outside-out patch recordings and inside-out patch recordings, the inhibitor (10–30 μM TKDC) was applied via dish perfusion. The bath level was kept as low as possible to reduce noise. Currents were recorded at a pipette potential of + 80 mV. […]
mechanical force, lipids, or pH change)? A comprehensive survey would be nice, but even evaluating block +/- one activating stimulus would be a very useful piece of information to know for those interested in using this drug.
Response: We have tested the TKDC-induced inhibition of TREK-1 in addition to the mechanical force using outside-out patch. 10 μM TKDC was applied via dish perfusion. The bath level was kept as low as possible to reduce noise. Currents were recorded at a pipette potential of +80 mV. Mechanical stimulation (-7 mmHg) for patches was applied by suction for the outside-out configuration using a pressure monitor (PM 015D, World Precision Instruments) controlled by clampex 10.6 software. As […]
The main aim of this work is to reveal an allosteric ligand-binding site in the extracellular cap of K2P channels. […]

With `CS(=O)(=O)N(CC(=O)N1CCc2ccccc2C1)c1ccc(Cl)cc1` [TKDC, N-(4-cholorphenyl)-N-(2-(3,4-dihydrosioquinolin-2(1H)-yl)-2-oxoethyl)methanesulfonamide] the “movement into the central area in the open field test” value (mice [1]) was “more likely to move into the central area”, the “total distance traveled in the open field test” value (mice [1]; among groups) was “no obvious difference” and the “immobility in the tail suspension test” value (mice [2]) was “dose-dependent decrease in immobility”. For the same molecule, the “cell surface signal of TREK-1 positive cells” value [3] was “did not obviously lose the cell surface signal”, the “inhibition of TREK-1, outside-out recording” value (TREK-1; application to the extracellular face, 10 and 30 μM) was “consistently inhibited TREK-1” and the “inhibition of TREK-1, inside-out recording” value (TREK-1; application to the intracellular side, 10 and 30 μM) was “did not significantly inhibit TREK-1 activity”. For the same molecule, the “effect on activation of TREK-1 by mechanical force” value (TREK-1; outside-out patch, 10 μM, -7 mmHg) was “suppressed the activation of TREK-1 by mechanical force”.
